Measurements from patent US10213422B2, “Compositions and methods of inhibiting histone deacetylases” (YALE UNIVERSITY, priority 2014, dated 2019).
Blank lines part the entries; values can stand above or below the molecule they belong to.

Tests used:
PAH PAECs [1] = experiment: PAH PAEC migration assay; type: cell-based, human; conditions: 1 μM
Method: PAECs were grown to post-confluence in 24-well plates, and then subjected to injury using a plastic pipette tip. They were then treated with vehicle or MC1568 (1 μM). The cells were allowed to migrate for 8 h, and the gap distance was calculated in at least five randomly selected microscopic fields per each sample.

[2] = system: MEF2 transcriptional targets (Cx37, Cx40, KLF2); experiment: MEF2 target expression in PAH PAECs (RT-PCR); type: cell-based, human; conditions: 1 μM for 24 h, vs. control/DMSO
Method: (§1) PAECs were isolated from normal and PAH explanted donor lungs, as described previously. Additional control PAECs were obtained from Lonza. PAECs from eleven control subjects, seven subjects with IPAH and three subjects with FPAH were studied. In brief, human pulmonary arteries were dissected from the lungs to the distal small arterioles, and PAECs were harvested from the isolated pulmonary arterial tree. PAECs were grown in EBM-2 basal medium supplemented with EGM-2 (Lonza) on fibronectin-coated plates. Cells were passaged at 70-80% confluency, and primary cultures of passages 3 to 7 were used in experiments. All apelin stimulations were done using apelin-13 peptide at 1 μM (Sigma). TSA (Sigma), MC1568 (Selleck Chemicals and DC Chemicals), TMP269 (DC Chemicals), and Tasquinimod (DC Chemicals) were dissolved in DMSO (Sigma) and used at the indicated doses. Total RNA was extracted with an RNA isolation kit, (miRNeasy RNA, Qiagen). Purified RNA was reverse transcribed with a cDNA synthesis kit (iScript cDNA Synthesis Kit, Bio-Rad). RT-PCR was performed with TaqMan probes for both genes and miRNAs (Applied Biosystems). All miRNA data were normalized to the internal control small RNAs RNU19 and HY3 for human samples and U87 for rat samples. For the mRNA samples, ribosomal 18S was used as an internal control. […]

class IIa HDACs = conditions: cited from earlier work
HDAC4 [3] = target: T1, HDAC4 (Homo sapiens, UniProt P56524); experiment: HDAC4 degradation in PAECs from a PAH patient (western blot); type: cell-based; conditions: 1 μM for 24 hr
T1 construct: phosphorylation of endogenously expressed HDAC4 and HDAC5; endogenous in cells; host or cells: PAECs from PAH patient(s)

[4] = system: human coronary artery endothelial cells; experiment: Caspase 3 cleavage in human coronary artery endothelial cells; type: cell-based
[5] = system: rats with experimental pulmonary hypertension; experiment: Experimental pulmonary hypertension models in rats (MCT and SU-5416/hypoxia): hemodynamic, morphometric and cardiac analyses; type: in vivo, rat; conditions: for right ventricular hypertrophy (right ventricle to left ventricle plus septum weight ratios): SU5416/hypoxia, vs. control; for right ventricular systolic pressures: SU-5416/hypoxia, vs. DMSO
Method: Rat lung tissues were fixed and stained as previously described (Nature medicine 19, 74-82 (2013)). Standard methods (Trichrome Stain, Sigma) were used to stain for collagen in cardiac sections.
(§2) Male Sprague Dawley rats (200-250 g; Charles River Laboratories) were subcutaneously injected with monocrotaline (Sigma) (60 mg per kg body weight) for the MCT model. For the SUGEN model, SU-5416 (Sigma) was resuspended in DMSO (Sigma) and injected subcutaneously (20 mg per kg body weight). Rats were subsequently exposed to hypoxia (10% FiO2) for 2 weeks. Rats were given intraperitoneal administration of either the vehicle (DMSO), MC1568 (Sellek Chemicals and DC Chemicals) (50 mg per kg body weight), TMP269 (DC Chemicals) (intraperitoneal injection of 50 mg/kg/day for two weeks), or Tasquinimod (DC Chemicals) (oral gavage of 10 mg/kg/day for two weeks) daily as indicated (FIG. 13).
Right ventricular systolic pressure (RVSP) measurements were performed at the designated time points under isoflurane by inserting a catheter (Millar Instruments) into the right jugular vein as described previously.^21 Lungs were perfused with normal saline and fixed in 4% paraformaldehyde overnight for immunohistochemistry or snap frozen in liquid nitrogen for protein and RNA analyses. Hearts were dissected and weighed for calculation of the right ventricle to the left ventricle plus septum weight ratio. The same full section in the midportion of the left lung parallel to the hilum was used and embedded in the same manner for lung morphometric analyses. Pulmonary artery muscularization was assessed at ×200 magnification after staining for vWF and SMA by calculating the ratio of the number of muscularized peripheral pulmonary arteries to the number of total peripheral pulmonary arteries (with diameters less than 75 μm) in five random fields per lung (with each field at ×200 magnification). The total number of vessels less than 75 μm was expressed as the number of vessels counted per random microscope field (five random fields per lung at ×200 magnification). Pulmonary arteries with proliferating cells were assessed in PCNA stained lung sections. Vessels with one or more PCNA staining cell were considered to be PNCA positive. All measurements were carried out by investigators blinded to the experimental condition.

PAH PAECs [6] = experiment: PAH PAEC proliferation assay; type: cell-based, human; conditions: PAH PAECs vs. DMSO
Method: PAECs (5×10^3 cells per well) were plated in a 96-well plate and treated with DMSO or MC1568. Cell proliferation was measured by a colorimetric kit for determining cell viability (CellTiter 96 AQueous One Solution Cell Proliferation Assay, Promega) per manufacturer's protocol.

HDAC5 [7] = target: T2, HDAC5 (Homo sapiens, UniProt Q9UQL6); experiment: HDAC5 degradation in PAECs from a PAH patient (western blot); type: cell-based; conditions: 1 μM for 24 hr
T2 construct: phosphorylation of endogenously expressed HDAC4 and HDAC5; endogenous in cells; host or cells: PAECs from PAH patient(s)

[8] = system: MEF2 transcriptional targets (Cx37, Cx40 and KLF2); experiment: MEF2 transcriptional target expression in PH model rats; type: in vivo, rat; conditions: PH models, MC1568 50 mg per kg intraperitoneal daily, vs. DMSO
Method: Total RNA was extracted with an RNA isolation kit, (miRNeasy RNA, Qiagen). Purified RNA was reverse transcribed with a cDNA synthesis kit (iScript cDNA Synthesis Kit, Bio-Rad). RT-PCR was performed with TaqMan probes for both genes and miRNAs (Applied Biosystems). All miRNA data were normalized to the internal control small RNAs RNU19 and HY3 for human samples and U87 for rat samples. For the mRNA samples, ribosomal 18S was used as an internal control. Individual RT-PCRs were performed on a CFX96 (Bio-Rad) according to the manufacturer's instructions. […]
Right ventricular systolic pressure (RVSP) measurements were performed at the designated time points under isoflurane by inserting a catheter (Millar Instruments) into the right jugular vein as described previously.^21 Lungs were perfused with normal saline and fixed in 4% paraformaldehyde overnight for immunohistochemistry or snap frozen in liquid nitrogen for protein and RNA analyses. […] Pulmonary artery muscularization was assessed at ×200 magnification after staining for vWF and SMA by calculating the ratio of the number of muscularized peripheral pulmonary arteries to the number of total peripheral pulmonary arteries (with diameters less than 75 μm) in five random fields per lung (with each field at ×200 magnification). […] Pulmonary arteries with proliferating cells were assessed in PCNA stained lung sections. […]

FGF2 [9] = experiment: FGF2 expression in lungs of PH model rats; type: in vivo, rat; conditions: two PH models, lung homogenates, MC1568 50 mg per kg intraperitoneal daily
Method: as §2
Right ventricular systolic pressure (RVSP) measurements were performed at the designated time points under isoflurane by inserting a catheter (Millar Instruments) into the right jugular vein as described previously.^21 Lungs were perfused with normal saline and fixed in 4% paraformaldehyde overnight for immunohistochemistry or snap frozen in liquid nitrogen for protein and RNA analyses. […] The total number of vessels less than 75 μm was expressed as the number of vessels counted per random microscope field (five random fields per lung at ×200 magnification). Pulmonary arteries with proliferating cells were assessed in PCNA stained lung sections. […]

FGF2 [10] = experiment: FGF2 expression in PAH PAECs; type: cell-based, human; conditions: 1 μM for 24 h
Method: as §1

[11] = pulmonary artery banding, previous study; cited from earlier work
MEF2 = conditions: PAH PAECs, apelin 1 μM for 24 h
Method: Either control PAECs or PAH PAECs were transfected and lysed in lysis buffer (Promega). Renilla luciferase was used for normalization. Dual Luciferase Reporter System (Promega) was used according to the manufacturer's protocol. All experiments were performed three times in triplicates.

HDAC5-GFP = conditions: PAH PAECs, apelin 1 μM for 1 h
Method: (§3) For the apelin effect on HDAC4/5 translocation, PAECs plated on glass bottom culture dish (Mat-Tek) were transfected with GFP-tagged HDAC4 and HDAC5 expression vectors for 24 hours. Cells were imaged using a Nikon Eclipse Ti confocal microscopy before and after treatment with apelin 13 (1 μM for 1 h at 37° C.).

HDAC4-GFP = conditions: PAH PAECs, apelin 1 μM for 1 h
Method: as §3

HDAC5 [12] = conditions: PAH PAECs, apelin 1 μM for 1 h
Method: (§4) Western blotting was performed as previously described (eriosclerosis, thrombosis, and vascular biology 31, 814-820 (2011)). Each western blot is representative of three independent experiments done in triplicate. For the generation of cell lysates, lysis buffer (RIPA, Thermo Scientific) containing a protease and phosphatase inhibitor cocktail (Halt Protease and Phosphatase Inhibitor, Thermo Scientific) was used. Protein contents were measured using a detergent-compatible protein concentration assay (DC™ assay, Bio-Rad).

HDAC4 [13] = conditions: PAH PAECs, apelin 1 μM for 1 h
Method: as §4

[14] = MCT and SUGEN models, MC1568 50 mg per kg intraperitoneal daily, vs. vehicle (DMSO)
[15] = TMP269 intraperitoneal 50 mg/kg/day for two weeks
[16] = Tasquinimod oral gavage 10 mg/kg/day for two weeks

T2 sequence (Q9UQL6 whole entry): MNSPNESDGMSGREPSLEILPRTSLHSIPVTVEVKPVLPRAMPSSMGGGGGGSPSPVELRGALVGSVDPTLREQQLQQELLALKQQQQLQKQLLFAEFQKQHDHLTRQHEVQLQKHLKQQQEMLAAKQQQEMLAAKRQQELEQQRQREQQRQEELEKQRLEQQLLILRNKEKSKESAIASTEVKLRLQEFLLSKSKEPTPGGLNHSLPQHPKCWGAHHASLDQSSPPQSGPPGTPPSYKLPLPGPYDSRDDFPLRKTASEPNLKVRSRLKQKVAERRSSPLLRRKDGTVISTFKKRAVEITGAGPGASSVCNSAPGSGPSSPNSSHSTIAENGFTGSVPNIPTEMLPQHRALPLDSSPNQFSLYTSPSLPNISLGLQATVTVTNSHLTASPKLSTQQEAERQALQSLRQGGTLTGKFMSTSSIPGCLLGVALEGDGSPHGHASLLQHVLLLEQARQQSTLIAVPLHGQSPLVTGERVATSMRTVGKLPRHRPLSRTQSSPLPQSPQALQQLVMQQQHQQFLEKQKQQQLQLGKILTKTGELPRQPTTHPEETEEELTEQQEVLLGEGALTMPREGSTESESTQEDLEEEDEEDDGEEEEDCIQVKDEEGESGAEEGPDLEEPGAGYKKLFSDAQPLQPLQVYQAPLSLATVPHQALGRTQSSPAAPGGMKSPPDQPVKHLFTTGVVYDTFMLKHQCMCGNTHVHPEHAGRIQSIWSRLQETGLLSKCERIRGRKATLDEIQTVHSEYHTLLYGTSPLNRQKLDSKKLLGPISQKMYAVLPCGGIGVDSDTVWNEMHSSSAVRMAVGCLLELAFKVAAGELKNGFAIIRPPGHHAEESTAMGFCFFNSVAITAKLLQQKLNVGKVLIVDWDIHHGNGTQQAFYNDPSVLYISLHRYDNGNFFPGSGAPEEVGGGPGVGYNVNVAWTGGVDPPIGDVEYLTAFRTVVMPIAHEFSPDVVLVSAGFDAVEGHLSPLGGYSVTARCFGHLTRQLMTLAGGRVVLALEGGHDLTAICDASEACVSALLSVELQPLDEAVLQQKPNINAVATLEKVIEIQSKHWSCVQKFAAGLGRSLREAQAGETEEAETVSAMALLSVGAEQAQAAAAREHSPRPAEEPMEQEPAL
T1 sequence (P56524 whole entry): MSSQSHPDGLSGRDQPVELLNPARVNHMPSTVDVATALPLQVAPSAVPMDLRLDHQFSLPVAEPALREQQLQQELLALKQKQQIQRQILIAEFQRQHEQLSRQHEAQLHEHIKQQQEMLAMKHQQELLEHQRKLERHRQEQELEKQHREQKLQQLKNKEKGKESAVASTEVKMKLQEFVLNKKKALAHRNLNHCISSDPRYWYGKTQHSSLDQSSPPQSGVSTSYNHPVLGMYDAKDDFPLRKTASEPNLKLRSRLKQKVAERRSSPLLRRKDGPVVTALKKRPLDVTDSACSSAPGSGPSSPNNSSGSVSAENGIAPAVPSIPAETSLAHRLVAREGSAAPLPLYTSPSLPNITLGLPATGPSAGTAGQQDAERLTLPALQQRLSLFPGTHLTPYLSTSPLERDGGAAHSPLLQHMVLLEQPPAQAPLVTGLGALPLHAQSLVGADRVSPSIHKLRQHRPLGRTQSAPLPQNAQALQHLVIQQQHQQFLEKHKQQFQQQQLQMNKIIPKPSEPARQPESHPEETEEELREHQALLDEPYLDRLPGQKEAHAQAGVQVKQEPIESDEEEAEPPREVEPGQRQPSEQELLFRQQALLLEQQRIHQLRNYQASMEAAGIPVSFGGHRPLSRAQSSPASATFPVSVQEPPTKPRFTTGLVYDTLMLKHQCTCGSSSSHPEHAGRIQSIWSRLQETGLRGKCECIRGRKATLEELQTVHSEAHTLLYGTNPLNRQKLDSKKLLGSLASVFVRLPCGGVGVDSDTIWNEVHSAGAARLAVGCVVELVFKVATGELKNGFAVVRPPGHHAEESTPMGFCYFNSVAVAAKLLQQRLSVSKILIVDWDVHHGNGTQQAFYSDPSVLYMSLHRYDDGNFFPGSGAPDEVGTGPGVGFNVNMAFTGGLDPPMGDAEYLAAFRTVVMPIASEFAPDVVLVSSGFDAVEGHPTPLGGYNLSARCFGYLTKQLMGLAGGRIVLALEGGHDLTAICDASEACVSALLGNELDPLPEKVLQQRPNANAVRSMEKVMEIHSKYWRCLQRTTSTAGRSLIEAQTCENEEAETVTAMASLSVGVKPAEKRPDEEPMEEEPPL

Molecule: Cn1c(/C=C/C(=O)NO)ccc1/C=C/C(=O)c1cccc(F)c1 [MC1568, (E)-3-(5-((E)-3-(3-fluorophenyl)-3-oxoprop-1-en-1-yl)-1-methyl-1H-pyrrol-2-yl)-N-hydroxyacrylamide]
PAH PAEC migration (PAH PAECs [1]): significant reduction
expression of Cx37, Cx40, and KLF2 [2]: significant increased expression
selectivity for class IIa HDACs over other HDAC classes (class IIa HDACs): selective inhibition of class IIa HDACs, without affecting other HDAC classes
degradation of HDAC4 (HDAC4 [3]): degradation
cellular apoptosis as assessed by caspase 3 cleavage [4]: did not result in caspase activation
myocardial fibrosis (trichrome staining of right ventricle, gross histology) ([5]; MCT and SUGEN groups, MC1568): no evidence of myocardial fibrosis
muscularization of small arterioles [5, 14]: significantly decreased
right ventricle to left ventricle+septum weight ratios [5, 14]: significant reduction
right ventricular systolic pressures (RVSP) [5, 14]: significant decrease
PCNA-positive proliferating vascular cells ([5]; MCT and SUGEN models, lungs, MC1568 50 mg per kg intraperitoneal daily, vs. control groups): significantly fewer
PAH PAEC proliferation (PAH PAECs [6]): significant reduction
degradation of HDAC5 (HDAC5 [7]): degradation
MEF2 transcriptional targets (Cx37, Cx40 and KLF2) expression [8]: increased
expression of FGF2 in the lungs (FGF2 [9]): significantly decreased
expression of FGF2 (FGF2 [10]): significant downregulation

degradation of HDAC4 (HDAC4 [3]): degradation
degradation of HDAC5 (HDAC5 [7]): degradation
Molecule: O=C(NCC1(c2nc(-c3ccccc3)cs2)CCOCC1)c1cccc(-c2noc(C(F)(F)F)n2)c1 [TMP269, N-((4-(4-phenylthiazol-2-yl)tetrahydro-2H-pyran-4-yl)methyl)-3-(5-(trifluoromethyl)-1,2,4-oxadiazol-3-yl)benzamide]
PAH PAEC migration (PAH PAECs [1]): inhibited
expression of Cx37, Cx40, and KLF2 [2]: significantly increased
right ventricular hypertrophy (right ventricle to left ventricle plus septum weight ratios) [5, 15]: decreased
right ventricular systolic pressures [5, 15]: significantly reduced

Molecule: CC(/C=C/C(=O)NO)=C\[C@@H](C)C(=O)c1ccc(N(C)C)cc1 [TSA, trichostatin A]
cellular apoptosis as assessed by caspase 3 cleavage [4]: marked induction of cellular apoptosis
effect on the right ventricle [11]: detrimental injury to the right ventricle

Molecule: COc1cccc2c1c(O)c(C(=O)N(C)c1ccc(C(F)(F)F)cc1)c(=O)n2C [Tasquinimod, 4-hydroxy-5-methoxy-N,1-dimethyl-2-oxo-N-[4-(trifluoromethyl)phenyl]-1,2-dihydroquinoline-3-carboxamide]
right ventricular hypertrophy (right ventricle to left ventricle plus septum weight ratios) [5, 16]: decreased
right ventricular systolic pressures [5, 16]: significantly reduced

Molecule: CCCC(CCC)C(=O)O [valproic acid]
effect on the right ventricle [11]: detrimental injury to the right ventricle

Molecule: apelin
MEF2 reporter activity (MEF2): significant augmentation
cytoplasmic translocation of HDAC5-GFP (HDAC5-GFP): robust cytoplasmic translocation
cytoplasmic translocation of HDAC4-GFP (HDAC4-GFP): robust cytoplasmic translocation
phosphorylation of HDAC5 (HDAC5 [12]): marked increase in phosphorylation
phosphorylation of HDAC4 (HDAC4 [13]): marked increase in phosphorylation
